Laboratory results reported in ChEMBL document CHEMBL2021850, “Steroidal C-21 heteroaryl thioethers. Part 3: pregn-4-eno-[3,2-c]pyrazole fused A ring modified steroids as selective glucocorticoid receptor modulators (dissociated steroids)” (Bioorg Med Chem Lett, 2012).

Assays:
Glucocorticoid receptor [1] = molecular target: T1, Glucocorticoid receptor (Homo sapiens, UniProt P04150); assay: Transrepression activity at glucocorticoid receptor in human H292 cells assessed as inhibition of TNF-induced IL8 production; format: cell-based
T1 sequence (P04150 whole entry): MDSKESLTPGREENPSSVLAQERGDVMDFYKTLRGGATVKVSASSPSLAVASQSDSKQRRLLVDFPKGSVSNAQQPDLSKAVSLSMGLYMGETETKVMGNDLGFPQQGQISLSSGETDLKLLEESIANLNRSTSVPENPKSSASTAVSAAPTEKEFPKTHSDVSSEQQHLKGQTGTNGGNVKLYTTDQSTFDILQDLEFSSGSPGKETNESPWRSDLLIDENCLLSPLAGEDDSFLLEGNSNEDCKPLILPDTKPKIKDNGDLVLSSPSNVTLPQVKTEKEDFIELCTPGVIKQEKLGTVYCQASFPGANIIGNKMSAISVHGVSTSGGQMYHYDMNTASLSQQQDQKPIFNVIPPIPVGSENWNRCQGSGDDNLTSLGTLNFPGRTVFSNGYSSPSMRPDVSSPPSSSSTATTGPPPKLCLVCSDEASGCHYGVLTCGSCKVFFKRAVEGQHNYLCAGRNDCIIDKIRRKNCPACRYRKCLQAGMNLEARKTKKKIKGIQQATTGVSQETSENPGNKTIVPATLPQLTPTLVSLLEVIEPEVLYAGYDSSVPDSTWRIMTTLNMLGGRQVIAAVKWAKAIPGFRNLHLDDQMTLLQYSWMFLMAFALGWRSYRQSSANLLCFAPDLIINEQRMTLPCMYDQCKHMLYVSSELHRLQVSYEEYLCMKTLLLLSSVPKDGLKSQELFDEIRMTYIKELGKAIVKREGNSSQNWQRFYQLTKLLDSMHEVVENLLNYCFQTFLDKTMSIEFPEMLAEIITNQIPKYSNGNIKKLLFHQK

[2] = Cmax in po dosed rat; format: ADME, organism-based; parameters: route oral; conditions: in vivo; further: test concentration or dose not given here
Glucocorticoid receptor [3] = molecular target: T2, Glucocorticoid receptor (Rattus norvegicus, UniProt P06536); assay: Transactivation activity at glucocorticoid receptor in rat H4II-E cells assessed as induction of tyrosine aminotransferase; format: ADME, cell-based
T2 sequence (P06536 whole entry): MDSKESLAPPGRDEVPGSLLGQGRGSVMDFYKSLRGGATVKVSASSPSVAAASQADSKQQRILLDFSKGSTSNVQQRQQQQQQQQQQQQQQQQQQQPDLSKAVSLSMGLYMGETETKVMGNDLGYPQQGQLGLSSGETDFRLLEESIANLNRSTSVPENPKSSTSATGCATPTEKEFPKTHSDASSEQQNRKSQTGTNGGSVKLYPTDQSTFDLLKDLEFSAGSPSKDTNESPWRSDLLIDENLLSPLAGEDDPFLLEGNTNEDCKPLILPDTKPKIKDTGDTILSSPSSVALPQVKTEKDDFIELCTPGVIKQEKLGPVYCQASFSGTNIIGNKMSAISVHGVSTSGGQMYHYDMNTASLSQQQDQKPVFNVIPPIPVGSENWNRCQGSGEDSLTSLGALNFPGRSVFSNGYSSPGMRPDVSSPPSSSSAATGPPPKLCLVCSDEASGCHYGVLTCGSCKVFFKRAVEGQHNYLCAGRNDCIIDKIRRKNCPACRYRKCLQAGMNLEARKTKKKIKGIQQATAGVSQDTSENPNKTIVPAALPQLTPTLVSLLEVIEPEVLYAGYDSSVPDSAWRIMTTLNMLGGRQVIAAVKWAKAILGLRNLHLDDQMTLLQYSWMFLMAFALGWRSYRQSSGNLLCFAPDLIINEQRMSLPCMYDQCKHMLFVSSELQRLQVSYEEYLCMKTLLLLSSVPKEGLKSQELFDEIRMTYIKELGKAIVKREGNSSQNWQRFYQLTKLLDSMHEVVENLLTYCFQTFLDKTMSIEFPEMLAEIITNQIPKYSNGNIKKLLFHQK

[4] = AUC in po dosed rat; format: ADME, organism-based; conditions: plasma; further: test concentration or dose not given here
Glucocorticoid receptor [5] = molecular target: T1, Glucocorticoid receptor; assay: Transactivation activity at glucocorticoid receptor in human HepG2 cells assessed as induction of tyrosine aminotransferase; format: ADME, cell-based
Glucocorticoid receptor [6] = molecular target: T1, Glucocorticoid receptor; assay: Transactivation activity at human glucocorticoid receptor in cells co-expressing GRE by luciferase reporter gene assay; conditions: read-out: IC50 (the source's name)
Glucocorticoid receptor [7] = molecular target: T1, Glucocorticoid receptor; assay: Transactivation activity at human glucocorticoid receptor in cells co-expressing GRE by luciferase reporter gene assay relative to control; conditions: read-out: Efficacy

| Cmax [2] [ng/mL] | AUC [4] [ng·h/mL] | Compound | IC50 (Glucocorticoid receptor [1]) [nM] | IC50 (Glucocorticoid receptor [3]) [nM] | IC50 (Glucocorticoid receptor [5]) [nM] | EC50 (Glucocorticoid receptor [6]) [nM] | Emax (Glucocorticoid receptor [7]) [%] |
| --- | --- | --- | --- | --- | --- | --- | --- |
|  |  | C[C@]12Cc3cnn(C4CCOCC4)c3C=C1CC[C@@H]1[C@@H]2[C@@H](O)C[C@@]2(C)[C@H]1CC[C@]2(O)C(=O)CSc1nc2ccccc2s1 | 86.4 |  |  |  |  |
| 240 | 1040 | C[C@]12Cc3cnn(-c4ccc(F)cc4)c3C=C1CC[C@@H]1[C@@H]2[C@@H](O)C[C@@]2(C)[C@H]1CC[C@]2(O)C(=O)CO | 0.4 | 3.2 | 40.9 |  |  |
|  |  | C[C@]12Cc3cnn(C4CCCCC4)c3C=C1CC[C@@H]1[C@@H]2[C@@H](O)C[C@@]2(C)[C@H]1CC[C@]2(O)C(=O)CSc1ncccn1 | 7.3 |  | 1000 | 137 | 76 |
|  |  | C[C@]12CCC(=O)C=C1CC[C@@H]1[C@@H]2[C@@H](O)C[C@@]2(C)[C@H]1CC[C@]2(O)C(=O)CSc1nnc(-c2ccccc2)o1 | 29.2 |  |  |  | 54 |
|  |  | Cn1c(SCC(=O)[C@@]2(O)CC[C@H]3[C@@H]4CCC5=Cc6c(cnn6C6CCCCC6)C[C@]5(C)[C@H]4[C@@H](O)C[C@@]32C)nc2ccccc21 | 6.6 | 1000 |  |  | 75 |
|  |  | Cn1c(SCC(=O)[C@@]2(O)CC[C@H]3[C@@H]4CCC5=Cc6c(cnn6-c6ccc(F)cc6)C[C@]5(C)[C@H]4[C@@H](O)C[C@@]32C)nc2ccccc21 | 1.1 | 174 | 88.7 |  |  |
|  |  | C[C@]12Cc3cnn(C4CCCCC4)c3C=C1CC[C@@H]1[C@@H]2[C@@H](O)C[C@@]2(C)[C@H]1CC[C@]2(O)C(=O)CSc1nc2ccccc2s1 | 7.1 | 54.7 | 400 |  | 78 |
|  |  | COc1ccc(-n2ncc3c2C=C2CC[C@@H]4[C@H]([C@@H](O)C[C@@]5(C)[C@H]4CC[C@]5(O)C(=O)CSc4nc5ccccc5s4)[C@@]2(C)C3)cc1 | 107 |  |  |  |  |
|  |  | C[C@]12Cc3cnn(-c4ccc(F)cc4)c3C=C1CC[C@@H]1[C@@H]2[C@@H](O)C[C@@]2(C)[C@H]1CC[C@]2(O)C(=O)CSc1nc2ccccc2c(=O)[nH]1 | 3 | 86.5 | 93.5 |  |  |
|  |  | C[C@]12Cc3cnn(-c4ccc(F)cc4)c3C=C1CC[C@@H]1[C@@H]2[C@@H](O)C[C@@]2(C)[C@H]1CC[C@]2(O)C(=O)CSc1nccc2ccccc12 | 1.6 | 65.4 | 37.3 |  |  |
|  |  | C[C@]12Cc3cnn(-c4ccccc4)c3C=C1CC[C@@H]1[C@@H]2[C@@H](O)C[C@@]2(C)[C@H]1CC[C@]2(O)C(=O)CSc1nc2ccccc2s1 | 7.5 | 57.3 | 165 |  | 89 |
|  |  | C[C@]12Cc3cnn(C4CCCCC4)c3C=C1CC[C@@H]1[C@@H]2[C@@H](O)C[C@@]2(C)[C@H]1CC[C@]2(O)C(=O)CSc1ccccn1 | 4.4 |  |  |  | 87 |
| 628 | 2480 | C[C@]12Cc3cnn(-c4ccccc4)c3C=C1CC[C@@H]1[C@@H]2[C@@H](O)C[C@@]2(C)[C@H]1CC[C@]2(O)C(=O)CO | 0.63 | 3.23 | 143 |  |  |
|  |  | C[C@]12Cc3cnn(-c4ccc(F)cc4)c3C=C1CC[C@@H]1[C@@H]2[C@@H](O)C[C@@]2(C)[C@H]1CC[C@]2(O)C(=O)COc1ccc2ccccc2n1 | 1.8 | 44.7 |  |  |  |
|  |  | C[C@]12Cc3cnn(-c4ccccn4)c3C=C1CC[C@@H]1[C@@H]2[C@@H](O)C[C@@]2(C)[C@H]1CC[C@]2(O)C(=O)CSc1nc2ccccc2s1 | 179 |  |  |  |  |
|  |  | C[C@]12Cc3cnn(-c4ccc(F)cc4)c3C=C1CC[C@@H]1[C@@H]2[C@@H](O)C[C@@]2(C)[C@H]1CC[C@]2(O)C(=O)COc1cnc2ccccc2n1 | 1.89 |  | 98.7 |  |  |
|  |  | C[C@]12CCC(=O)C=C1CC[C@@H]1[C@@H]2[C@@H](O)C[C@@]2(C)[C@H]1CC[C@]2(O)C(=O)CSc1ccc(Cl)c(Cl)c1 | 27.2 |  |  |  | 28 |

| Cmax [2] [ng/mL] | AUC [4] [ng·h/mL] | Compound | IC50 (Glucocorticoid receptor [1]) [nM] | IC50 (Glucocorticoid receptor [3]) [nM] | IC50 (Glucocorticoid receptor [5]) [nM] | EC50 (Glucocorticoid receptor [6]) [nM] | Emax (Glucocorticoid receptor [7]) [%] |
| --- | --- | --- | --- | --- | --- | --- | --- |
|  |  | Cc1cccc(SCC(=O)[C@@]2(O)CC[C@H]3[C@@H]4CCC5=CC(=O)CC[C@]5(C)[C@H]4[C@@H](O)C[C@@]32C)n1 | 127 |  |  |  | 18 |
|  |  | C[C@]12Cc3cnn(C4CCCCC4)c3C=C1CC[C@@H]1[C@@H]2[C@@H](O)C[C@@]2(C)[C@H]1CC[C@]2(O)C(=O)CSc1cnc2ccccc2n1 | 12.4 |  |  |  | 84 |
|  |  | C[C@]12Cc3cnn(-c4ccc(F)cc4)c3C=C1CC[C@@H]1[C@@H]2[C@@H](O)C[C@@]2(C)[C@H]1CC[C@]2(O)C(=O)COc1nc2ccccc2s1 | 2.1 | 84 |  |  |  |
|  |  | C[C@]12Cc3cnn(-c4ccccc4)c3C=C1CC[C@@H]1[C@@H]2[C@@H](O)C[C@@]2(C)[C@H]1CC[C@]2(O)C(=O)COc1cnc2ccccc2n1 | 3.7 |  |  |  | 56 |
|  |  | C[C@]12Cc3cnn(C4CCCCC4)c3C=C1CC[C@@H]1[C@@H]2[C@@H](O)C[C@@]2(C)[C@H]1CC[C@]2(O)C(=O)CSc1nc2ccccc2o1 | 3.12 | 31.6 | 82.1 |  | 72 |
|  |  | C[C@]12Cc3cnn(-c4ccc(F)cc4)c3C=C1CC[C@@H]1[C@@H]2[C@@H](O)C[C@@]2(C)[C@H]1CC[C@]2(O)C(=O)CSc1ncccn1 | 0.6 | 14.3 | 37.7 |  |  |
|  |  | C[C@]12Cc3cnn(-c4ccc(F)cc4)c3C=C1CC[C@@H]1[C@@H]2[C@@H](O)C[C@@]2(C)[C@H]1CC[C@]2(O)C(=O)CSc1ccc2ccccc2c1 | 0.72 | 52.5 | 30.5 |  |  |
|  |  | C[C@]12Cc3cnn(-c4ccc(F)cc4)c3C=C1CC[C@@H]1[C@@H]2[C@@H](O)C[C@@]2(C)[C@H]1CC[C@]2(O)C(=O)CSc1ccccn1 | 0.5 | 4.5 | 4.7 |  |  |
|  |  | Cn1c(OCC(=O)[C@@]2(O)CC[C@H]3[C@@H]4CCC5=Cc6c(cnn6-c6ccc(F)cc6)C[C@]5(C)[C@H]4[C@@H](O)C[C@@]32C)nc2ccccc21 | 2.9 | 78 |  |  |  |
|  |  | C[C@]12Cc3cnn(-c4ccc(F)cc4)c3C=C1CC[C@@H]1[C@@H]2[C@@H](O)C[C@@]2(C)[C@H]1CC[C@]2(O)C(=O)CSc1ccc2ccccc2n1 | 5.3 | 24.3 | 18.3 |  |  |
|  |  | C[C@]12Cc3cnn(-c4ccc(F)cc4)c3C=C1CC[C@@H]1[C@@H]2[C@@H](O)C[C@@]2(C)[C@H]1CC[C@]2(O)C(=O)CSc1nc2ccccc2s1 | 1.7 | 24.1 | 101 |  |  |
|  |  | C[C@]12Cc3cnn(C4CCCCC4)c3C=C1CC[C@@H]1[C@@H]2[C@@H](O)C[C@@]2(C)[C@H]1CC[C@]2(O)C(=O)CSc1ccc2ccccc2n1 | 44.7 |  |  |  | 71 |
|  |  | C[C@]12Cc3cnn(C4CCCCC4)c3C=C1CC[C@@H]1[C@@H]2[C@@H](O)C[C@@]2(C)[C@H]1CC[C@]2(O)C(=O)CO | 2.37 |  |  | 5.57 | 96 |
|  |  | C[C@]12CCC(=O)C=C1CC[C@@H]1[C@@H]2[C@@H](O)C[C@@]2(C)[C@H]1CC[C@]2(O)C(=O)CSc1nc2ncccc2o1 | 61.3 |  |  |  | 37 |
|  |  | C[C@]12Cc3cnn(-c4ccc(F)cc4)c3C=C1CC[C@@H]1[C@@H]2[C@@H](O)C[C@@]2(C)[C@H]1CC[C@]2(O)C(=O)COc1ccc2ccccc2c1 | 1.06 | 58 | 29.2 |  |  |
|  |  | C[C@]12CCC(=O)C=C1CC[C@@H]1[C@@H]2[C@@H](O)C[C@@]2(C)[C@H]1CC[C@]2(O)C(=O)CSc1nc2ccccc2s1 |  |  |  |  | 30 |
